Source: ChEMBL document CHEMBL4715890, “Flavonoids from Sophora alopecuroides L. improve palmitate-induced insulin resistance by inhibiting PTP1B activity in vitro” (Bioorg Med Chem Lett, 2021)
≈ marks a conversion by molar mass, not a printed value. Calls of active or inactive are those of the source. The calls are words filed in the database; no cut-off is given here.

Experiments:
C2C12 [1] = experiment: Cytotoxicity against mouse C2C12 cells assessed as reduction in cell viability by MTT assay; type: cell-based; details: for IC50: Mus musculus, C2C12; for IC10: mouse, c2c12
C2C12 [2] = experiment: Induction of glucose uptake in mouse C2C12 cells at 1 ug/ml in presence of insulin; type: functional, cell-based; details: dose 1.0 µg/ml
C2C12 [3] = experiment: Induction of glucose uptake in mouse C2C12 cells at 1 ug/ml; type: functional, cell-based
[4] = target: T1, Tyrosine-protein phosphatase non-receptor type 1 (Mus musculus) (UniProt P35821); experiment: Inhibition of PTP1B in mouse PA-induced insulin-resistance C2C12 cells assessed as increase in glucose consumption at 1 ug/ml in presence of insulin after 16 hrs; type: cell-based; details: dose 1.0 µg/ml
T1 sequence (whole entry): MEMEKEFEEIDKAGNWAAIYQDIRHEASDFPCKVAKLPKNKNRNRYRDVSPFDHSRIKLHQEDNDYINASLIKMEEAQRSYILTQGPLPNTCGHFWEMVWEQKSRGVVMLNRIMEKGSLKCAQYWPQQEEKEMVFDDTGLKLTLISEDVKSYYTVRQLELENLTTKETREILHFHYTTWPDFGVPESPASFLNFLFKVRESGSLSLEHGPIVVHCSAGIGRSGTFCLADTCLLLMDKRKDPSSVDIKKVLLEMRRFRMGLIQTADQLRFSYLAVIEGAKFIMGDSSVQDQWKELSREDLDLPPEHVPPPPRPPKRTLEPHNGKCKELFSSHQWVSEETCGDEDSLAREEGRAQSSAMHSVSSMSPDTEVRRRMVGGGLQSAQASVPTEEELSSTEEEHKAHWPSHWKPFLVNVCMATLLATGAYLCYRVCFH

[5] = target: T2, Tyrosine-protein phosphatase non-receptor type 1 (Homo sapiens) (UniProt P18031); experiment: Inhibition of PTP1B (unknown origin) at 0.1 ug/ml relative to control; details: dose 0.1 µg/ml
T2 sequence (whole entry): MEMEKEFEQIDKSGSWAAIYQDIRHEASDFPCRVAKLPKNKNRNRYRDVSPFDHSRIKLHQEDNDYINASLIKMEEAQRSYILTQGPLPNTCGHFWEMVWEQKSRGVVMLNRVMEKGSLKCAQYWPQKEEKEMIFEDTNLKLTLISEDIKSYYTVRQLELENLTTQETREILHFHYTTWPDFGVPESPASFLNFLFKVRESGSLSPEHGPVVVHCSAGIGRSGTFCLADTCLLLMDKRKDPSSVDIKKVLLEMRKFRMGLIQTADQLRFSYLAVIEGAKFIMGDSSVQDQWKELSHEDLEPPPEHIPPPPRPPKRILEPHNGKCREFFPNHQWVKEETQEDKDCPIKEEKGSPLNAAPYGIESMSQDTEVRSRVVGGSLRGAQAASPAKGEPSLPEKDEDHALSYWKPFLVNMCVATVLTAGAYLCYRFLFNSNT

| SMILES | IC50 (C2C12 [1]) [µg/mL] | IC10 (C2C12 [1]) [µg/mL] | Activity (C2C12 [2]) | Activity (C2C12 [3]) | Glucose consumption increase [4] | inhibition [5] [%] |
| --- | --- | --- | --- | --- | --- | --- |
| O=C(/C=C/c1ccc(O)c(O)c1)c1ccc(O[C@@H]2O[C@H](CO)[C@@H](O)[C@H](O)[C@H]2O)cc1O | 20.8 (≈ 47.9 µM) | 4.39 (≈ 10.1 µM) | – | – | – | – |
| COc1cc(O)c2c(=O)c(-c3ccc(O)cc3)coc2c1 [PRUNETIN] | 23.2 (≈ 81.8 µM) | 7.19 (≈ 25.3 µM) | Active | Active | Active | – |
| COc1ccc(-c2cc(=O)c3c(O)cc(O[C@@H]4O[C@H](CO[C@@H]5O[C@@H](C)[C@H](O)[C@@H](O)[C@H]5O)[C@@H](O)[C@H](O)[C@H]4O)cc3o2)cc1O [DIOSMIN] | 20 (≈ 32.8 µM) | 5.14 (≈ 8.45 µM) | – | – | – | – |
| O=c1c(O)c(-c2ccc(O)c(O)c2)oc2cc(O)cc(O)c12 [QUERCETIN] | 30.8 (≈ 102 µM) | 9.23 (≈ 30.5 µM) | – | – | – | – |
| O=c1cc(-c2ccc(O)c(O)c2)oc2cc(O[C@@H]3O[C@H](CO)[C@@H](O)[C@H](O)[C@H]3O)ccc12 | 40 (≈ 92.6 µM) | 10.07 (≈ 23.3 µM) | Active | Active | Active | 68.9 |
| COc1cc(O)c2c(=O)c(-c3ccc(O)c(OC)c3)coc2c1 | 32.5 (≈ 103 µM) | 6.93 (≈ 22 µM) | Active | Active | Active | 70.1 |
| O=c1c(-c2ccc3c(c2)OCO3)coc2cc(O)ccc12 [PSEUDOBAPTOGENIN] | 12.1 (≈ 42.8 µM) | 3.49 (≈ 12.4 µM) | Active | Active | Active | – |
| O=c1c(-c2ccc(O)cc2)coc2cc(O[C@@H]3O[C@H](CO[C@@H]4OC[C@@H](O)[C@H](O)[C@H]4O)[C@@H](O)[C@H](O)[C@H]3O)cc(O)c12 | 34.2 (≈ 60.5 µM) | 6.07 (≈ 10.8 µM) | Active | Active | Active | 88.8 |
| O=C(/C=C/c1ccccc1)c1ccc(O)cc1O [2',4'-DIHYDROXYCHALCONE] | 32.3 (≈ 134 µM) | 6.14 (≈ 25.6 µM) | Active | Active | – | – |
| O=C(/C=C/c1ccc(O)c(O)c1)OC[C@H]1O[C@@H](Oc2ccc3c(=O)c(-c4ccc(O)cc4)coc3c2)[C@H](O)[C@@H](O)[C@@H]1O | 31.2 (≈ 54 µM) | 8.81 (≈ 15.2 µM) | Active | Active | Active | 81.6 |
| COc1cc(/C=C/C(=O)OC[C@H]2O[C@@H](Oc3ccc4c(=O)c(-c5ccc(O)c(O)c5)coc4c3)[C@H](O)[C@@H](O)[C@@H]2O)ccc1O | 24.3 (≈ 40 µM) | 7.36 (≈ 12.1 µM) | Active | Active | Active | 95.2 |
| O=c1c(-c2ccc3c(c2)OCO3)coc2cc(O[C@@H]3O[C@H](CO)[C@@H](O)[C@H](O)[C@H]3O)ccc12 | 13.5 (≈ 30.3 µM) | 4.18 (≈ 9.41 µM) | – | – | – | – |
| O=c1cc(-c2ccc(O)cc2)oc2cc(O)cc(O)c12 [APIGENIN] | 26.6 (≈ 98.4 µM) | 4.96 (≈ 18.4 µM) | Active | Active | – | – |
| O=c1cc(-c2ccc(O[C@@H]3O[C@H](CO)[C@@H](O)[C@H](O)[C@H]3O)c(O)c2)oc2cc(O)ccc12 | 29 (≈ 67.1 µM) | 5.85 (≈ 13.5 µM) | Active | Active | Active | 68.9 |
| O=C(/C=C/c1ccc(O)c(O)c1)c1ccc(O)cc1O [BUTEIN] | 19 (≈ 69.8 µM) | 3.99 (≈ 14.7 µM) | – | – | – | – |
| O=C(/C=C/c1ccc(O)cc1)c1ccc(O)cc1O [ISOLIQUIRITIGENIN] | 26.3 (≈ 103 µM) | 7.43 (≈ 29 µM) | Active | Active | – | – |
